A word on the MIC50: it is an inhibitory concentration at the 50% level, which refers to growth in some studies and to a panel of isolates in others.

Structures are written as SMILES. ≈ marks a conversion by molar mass, not a printed value. Like-named read-outs stand apart in the source and are kept apart here.

In one test the test system is Pneumocystis carinii. Briefly: In vitro ATP content of Pneumocystis (luciferin-luciferase assay).
The test system of the next test is Pneumocystis murina. Described as above.
The subject of the next test is C. krusei. Kind of test: MIC against Candida species (Table 4). The settings on record: Pichia kudriavzevii, 24 h.
Another test deals with Histoplasma capsulatum. It counts as cell-based. Particulars: 24-hour treatment.
The subject of the next test is C. guilliermondii. Kind of test: MIC against Candida species (Table 4). Particulars: Meyerozyma guilliermondii, 24 h.
Another test has as its system C. parapsilosis. Briefly: MIC against Candida species (Table 4). Particulars: 24 h.
The subject of another test is C. glabrata. Briefly: MIC against Candida species (Table 4). The settings on record: Nakaseomyces glabratus, 24 h.
The subject of the next test is Cryptococcus neoformans. Kind of test: MIC against Cryptococcus neoformans (Table 4). Particulars: Cryptococcus neoformans, 72 h.
The test system of another test is Apophysomyces. Kind of test: MIC (Table 5). The settings on record: 24 h.
In the next test the test system is Scedosporium apiospermum. Kind of test: MIC, CLSI M38-A2 broth dilution (Table 1). The class given is cell-based. On the technique in general: In broth dilution the organism is exposed to a series of concentrations in liquid medium.
Another test concerns P. variotii. Briefly: MIC (Table 5). The settings on record: Paecilomyces variotii, read-out: MIC 100%.
The test system of test [1] is Rhizopus oryzae. Briefly: MIC, CLSI M38-A2 broth dilution (Table 1). It counts as cell-based.
For a further test, the system named is Paeceilomyces variotii. Kind of test: MIC, CLSI M38-A2 broth dilution (Table 1). The class given is cell-based. The settings on record: isolate QC.
The test system of a further test is Lomentospora prolificans. Kind of test: MIC, CLSI M38-A2 broth dilution (Table 1). The class given is cell-based. The settings on record: isolate LP1, 48 hours.
For test [2], the system named is Rhizopus oryzae. Kind of test: MIC (Table 5). Particulars: Rhizopus arrhizus, 24 h.
The test system of the next test is Coccidioides sp. Briefly: microbe, parasite or virus in culture. Particulars: Coccidioides. The class given is cell-based.
The next test concerns Aspergillus fumigatus. Kind of test: Recovery of Aspergillus fumigatus mycelia growth after removal of antifungal drugs (MTT). The class given is cell-based. Particulars: treated 12 hours, drug removed, 24 hours more.
Test [3] has as its system Blastomyces dermatitidis. Kind of test: MIC, macrodilution method (Table 1). The class given is cell-based. Particulars: 96 hours.
The subject of test [4] is Blastomyces dermatitidis. Kind of test: MIC (Table 6). The settings on record: read-out: MIC VORI 100% 50%. It counts as cell-based.
A further test concerns Fusarium oxysporum. Kind of test: MIC, CLSI M38-A2 broth dilution (Table 1). It counts as cell-based.
Another test deals with Fusarium solani. Kind of test: MIC, CLSI M38-A2 broth dilution (Table 1). It counts as cell-based. Particulars: isolate FS1, 48 hours.
The test system of a further test is Scedosporium sp. Briefly: MIC (Table 5).
The test system of the next test is Fusarium sp. Briefly: MIC (Table 5). The class given is cell-based. The settings on record: Fusarium, read-out: MIC 100%.

For `CC1(C)S[C@@H]2[C@H](NC(=O)[C@H](N)c3ccccc3)C(=O)N2[C@H]1C(=O)O` [Ampicillin, ampicillin, reference compound], the “Pm % Reduction in ATP/Vehicle Control” value turned out to be 0% in the test with Pneumocystis carinii (Table 2, 10 μg/ml, 24 hours); 0% in the test with Pneumocystis carinii (Table 2, 10 μg/ml, 48 hours); 0% in the test with Pneumocystis carinii (Table 2, 10 μg/ml, 72 hours); 0% in the test on Pneumocystis murina (Table 3, 10 μg/ml, 24 hours); 0% in the test on Pneumocystis murina (Table 3, 10 μg/ml, 48 hours); 0% in the test with Pneumocystis murina (Table 3, 10 μg/ml, 72 hours).

`OC(Cn1cncn1)(Cn1cncn1)c1ccc(F)cc1F` [FLU, Fluconazole, reference compound]: the MIC50 against C. krusei was 8 µg/mL (≈ 26.1 µM); in the test with C. guilliermondii (isolate Cgu-1, 24 hrs), 8 µg/mL (≈ 26.1 µM); against C. guilliermondii (isolate Cgu-2, 24 hrs), 2 µg/mL (≈ 6.53 µM); against C. guilliermondii (isolate Cgu-3, 24 hrs) it was 1 µg/mL (≈ 3.27 µM); in the test with C. guilliermondii (isolate Cgu-4, 24 hrs), 1 µg/mL (≈ 3.27 µM); with C. guilliermondii (isolate Cgu-5, 24 hrs) it was 2 µg/mL (≈ 6.53 µM). The MIC50 against C. guilliermondii (isolate Cgu-6, 24 hrs) was 8 µg/mL (≈ 26.1 µM); in the test with C. guilliermondii (isolate Cgu-7, 24 hrs), 4 µg/mL (≈ 13.1 µM); in the test on C. parapsilosis (isolate CP-1, 24 hrs), 0.25 µg/mL (≈ 0.816 µM); in the test on C. parapsilosis (isolate CP-2, 24 hrs) it was not above 0.125 µg/mL; in the test on C. parapsilosis (isolate CP-3, 24 hrs) it was 0.25 µg/mL (≈ 0.816 µM); against C. parapsilosis (isolate CP-4, 24 hrs), 0.25 µg/mL (≈ 0.816 µM). The MIC50 in the test with C. parapsilosis (isolate CP-5, 24 hrs) is not above 0.125 µg/mL; with C. parapsilosis (isolate CP-6, 24 hrs), 16 µg/mL (≈ 52.2 µM); against C. parapsilosis (isolate CP-7, 24 hrs), 16 µg/mL (≈ 52.2 µM); in the test with C. parapsilosis (isolate QC), 1 µg/mL (≈ 3.27 µM); in the test on C. glabrata (isolate CG-1, 24 hrs), 16 µg/mL (≈ 52.2 µM); in the test with C. glabrata (isolate CG-2, 24 hrs), 16 µg/mL (≈ 52.2 µM). The MIC50 with C. glabrata (isolate CG-3, 24 hrs) was 32 µg/mL (≈ 104 µM); in the test with C. glabrata (isolate CG-4, 24 hrs), 32 µg/mL (≈ 104 µM); with C. glabrata (isolate CG-5, 24 hrs), 16 µg/mL (≈ 52.2 µM); against C. glabrata (isolate CG-6, 24 hrs), 2 µg/mL (≈ 6.53 µM); with C. glabrata (isolate CG-7, 24 hrs), 2 µg/mL (≈ 6.53 µM); with C. glabrata (isolate CG-8, 24 hrs), 2 µg/mL (≈ 6.53 µM). Further, the MIC50 turned out to be 2 µg/mL (≈ 6.53 µM) against C. glabrata (isolate CG-9, 24 hrs); 4 µg/mL (≈ 13.1 µM) against C. glabrata (isolate CG-10, 24 hrs); 4 µg/mL (≈ 13.1 µM) against Cryptococcus neoformans (isolate CN-1, 72 hrs); 12 µg/mL (≈ 39.2 µM) with Cryptococcus neoformans (isolate CN-2, 72 hrs); 64 µg/mL (≈ 209 µM) with Cryptococcus neoformans (isolate CN-3, 72 hrs). Moreover, the “reduction of fungal viability” value with Histoplasma capsulatum (then growth in absence of drug) is “did not significantly reduce fungal viability”. The “viability staining of yeasts” value with Histoplasma capsulatum (ethidium bromide / fluorescein staining) is recorded as “only fungistatic”.

Take `CC[C@@H]([C@H](C)O)n1ncn(-c2ccc(N3CCN(c4ccc(OC[C@@H]5CO[C@@](Cn6cncn6)(c6ccc(F)cc6F)C5)cc4)CC3)cc2)c1=O` [POS, Posaconazole, reference compound]: the MIC stood at 0.125 µg/mL (≈ 0.178 µM) in the test with Apophysomyces (read-out: MIC 100%, isolate AE-1, 24 hrs); 1 µg/mL (≈ 1.43 µM) in the test on Apophysomyces (read-out: MIC 100%, isolate AE-2, 24 hrs); 0.06 µg/mL (≈ 0.0856 µM) in the test with P. variotii (24 h); 0.5 µg/mL (≈ 0.713 µM) in the test on Rhizopus oryzae [2] (read-out: MIC 100%, isolate R-1, 24 hrs); 0.5 µg/mL (≈ 0.713 µM) in the test with Rhizopus oryzae [2] (read-out: MIC 100%, isolate R-2, 24 hrs); 0.5 µg/mL (≈ 0.713 µM) with Rhizopus oryzae [2] (read-out: MIC 100%, isolate R-3, 24 hrs). Besides, the MIC with Rhizopus oryzae [2] (read-out: MIC 100%, isolate R-4, 24 hrs) was determined as 0.125 µg/mL (≈ 0.178 µM); with Rhizopus oryzae [2] (read-out: MIC 100%, isolate R-5, 24 hrs), 0.25 µg/mL (≈ 0.357 µM); in the test with Rhizopus oryzae [2] (read-out: MIC 100%, isolate R-6, 24 hrs), 0.125 µg/mL (≈ 0.178 µM). For the same compound, the “MIC 100%” value in the test with Scedosporium apiospermum (isolate SA2, 72 hours) is 2 gg/m1; in the test with Rhizopus oryzae [1] (isolate RO1, 24 hours) it was 1 gg/m1; in the test on Rhizopus oryzae [1] (isolate RO2, 24 hours) it was 1 gg/m1; in the test with Rhizopus oryzae [1] (isolate RO3, 24 hours), 1 gg/m1; in the test on Paeceilomyces variotii, 0.25 gg/m1; with Lomentospora prolificans, 0.5 gg/m1.

Turning to `N=C(N)c1ccc(OCCCCCOc2ccc(C(=N)N)cc2)cc1` [Pent., pentamidine isethionate, reference compound], the “Pm % Reduction in ATP/Vehicle Control” value in the test on Pneumocystis carinii (Table 2, 1 μg/ml, 24 hours) came to 74.18%; in the test with Pneumocystis carinii (Table 2, 1 μg/ml, 48 hours) it was 97.06%; with Pneumocystis carinii (Table 2, 1 μg/ml, 72 hours), 97.47%; in the test with Pneumocystis murina (Table 3, 1 μg/ml, 24 hours), 72.06%; in the test with Pneumocystis murina (Table 3, 1 μg/ml, 48 hours), 87.94%; in the test on Pneumocystis murina (Table 3, 1 μg/ml, 72 hours), 93.85%.

Take `C[C@@H](c1ncncc1F)[C@](O)(Cn1cncn1)c1ccc(F)cc1F` [VORI, Voriconazole, reference compound]: the “MIC 100%” value was 0.25 gg/m1 with Scedosporium apiospermum (isolate SA1, 72 hours); 0.125 gg/m1 against Scedosporium apiospermum (isolate SA2, 72 hours); 0.125 gg/m1 in the test with Paeceilomyces variotii; 0.125 gg/m1 in the test with Blastomyces dermatitidis [3] (isolate BD1, macrodilution); “≦0.03 gg/m1” against Blastomyces dermatitidis [3] (isolate BD2, macrodilution); “≦0.03 gg/m1” against Blastomyces dermatitidis [3] (isolate BD3, macrodilution). The “MIC 100%” value against Fusarium oxysporum (isolate FO1, 48 hours) was 16 gg/m1; in the test on Fusarium oxysporum (isolate FO2, 48 hours) it was 16 gg/m1; against Fusarium solani it was 8 gg/m1; with Lomentospora prolificans it was 16 gg/m1. For the same compound, the MIC in the test on P. variotii was 0.06 µg/mL (≈ 0.172 µM); with Coccidioides sp. (read-out: MIC VORI 100% 50%, isolate COCCI-1, 72/192 hrs), 0.125 µg/mL (≈ 0.358 µM); with Coccidioides sp. (read-out: MIC VORI 100% 50%, isolate COCCI-2, 72/192 hrs), 0.25 µg/mL (≈ 0.716 µM); in the test on Coccidioides sp. (read-out: MIC VORI 100% 50%, isolate COCCI-3, 72/192 hrs), 0.125 µg/mL (≈ 0.358 µM); in the test on Blastomyces dermatitidis [4] (isolate BD1, 72/192 hrs), not above 0.03 µg/mL; in the test with Blastomyces dermatitidis [4] (isolate BD2, 72/192 hrs) it was 0.125 µg/mL (≈ 0.358 µM). The MIC is 0.125 µg/mL (≈ 0.358 µM) in the test with Blastomyces dermatitidis [4] (isolate BD3, 72/192 hrs); 0.5 µg/mL (≈ 1.43 µM) in the test on Scedosporium sp. (read-out: MIC 100%, isolate S-1, 48/72 hrs); 16 µg/mL (≈ 45.8 µM) with Scedosporium sp. (read-out: MIC 100%, isolate S-2, 48/72 hrs); 8 µg/mL (≈ 22.9 µM) in the test on Fusarium sp. (isolate F-1, 48/72 hrs); 8 µg/mL (≈ 22.9 µM) in the test with Fusarium sp. (isolate F-2, 48/72 hrs); more than 16 µg/mL in the test on Fusarium sp. (isolate F-3, 48/72 hrs). The “recovery of mycelia growth after removal of drug” value (from here on “recovery of mycelia growth”) in the test on Aspergillus fumigatus was “leaves mycelia viable”.

As for `C[C@@H]1[C@H](O)[C@@H](C)/C=C/C=C/C=C/C=C/C=C/C=C/C=C/[C@H](O[C@@H]2O[C@H](C)[C@@H](O)[C@H](N)[C@@H]2O)C[C@@H]2O[C@](O)(C[C@@H](O)C[C@@H](O)[C@H](O)CC[C@@H](O)C[C@@H](O)CC(=O)O[C@H]1C)C[C@H](O)[C@H]2C(=O)O` [amphotericin B], the “recovery of mycelia growth” value with Aspergillus fumigatus is “no viable Aspergillus fumigatus mycelia”.

Take `CC[C@H](C)C[C@H](C)CCCCCCCCC(=O)N[C@H]1C[C@@H](O)[C@@H](NCCN)NC(=O)[C@@H]2[C@@H](O)CCN2C(=O)[C@H]([C@H](O)CCN)NC(=O)[C@H]([C@H](O)[C@@H](O)c2ccc(O)cc2)NC(=O)[C@@H]2C[C@@H](O)CN2C(=O)[C@H]([C@@H](C)O)NC1=O` [caspofungin]: the “recovery of mycelia growth” value with Aspergillus fumigatus is listed as “leaves mycelia viable”.
